{"source": "paper PMC11126936", "about": "“Reactivating Hippo by drug compounds to suppress gastric cancer and enhance chemotherapy sensitivity” (The Journal of Biological Chemistry, 2024)", "key": {"GES-1 cells": {"tested_on": "GES-1 cells", "assay": "Cell viability of non-cancerous gastric epithelial GES-1 cells", "conditions": "Homo sapiens, GES1, read-out: IC50 value, GES-1 cells"}, "MNNG-induced GC tumors": {"tested_on": "MNNG-induced GC tumors", "assay": "MNNG-induced GC mouse model", "conditions": "50 mg/kg per day DSF vs control mice"}, "PP2Aa–STRN3 interaction [1]": {"target": "T1, PP2Aa–STRN3 interaction (Homo sapiens, UniProt P30153)", "assay": "Co-IP of HA-PP2Aa and Flag-STRN3 in HEK293A cells", "assay_type": "cell-based", "design": "expressed in transfected cells; host or cells: HEK293A"}, "AGS cells xenograft": {"tested_on": "AGS cells xenograft", "assay": "AGS xenograft tumor model", "conditions": "intratumoral injection, five consecutive days, vs control", "description": "Briefly, healthy male 615 mice were maintained in pathogen-free conditions. Mice were first injected with 2 × 10^6 AGS cells/per mouse into their flanks to induce tumor formation. Once the tumor volume reached about 100 mm^3, mice were injected intratumorally with indicted inhibitors for five successive days. Two weeks later, the mice were euthanized and then their tumors were harvested and weighed."}, "zebrafish larvae": {"tested_on": "zebrafish larvae", "conditions": "ref [65], [66]; cited from earlier work"}, "PP2Aa [2]": {"target": "T2, PP2Aa (Homo sapiens, UniProt P30153)", "T2 construct": "GST; made in house; host or cells: E. coli BL21 Codon plus (DE3)", "T2 sequence (P30153 8-589)": "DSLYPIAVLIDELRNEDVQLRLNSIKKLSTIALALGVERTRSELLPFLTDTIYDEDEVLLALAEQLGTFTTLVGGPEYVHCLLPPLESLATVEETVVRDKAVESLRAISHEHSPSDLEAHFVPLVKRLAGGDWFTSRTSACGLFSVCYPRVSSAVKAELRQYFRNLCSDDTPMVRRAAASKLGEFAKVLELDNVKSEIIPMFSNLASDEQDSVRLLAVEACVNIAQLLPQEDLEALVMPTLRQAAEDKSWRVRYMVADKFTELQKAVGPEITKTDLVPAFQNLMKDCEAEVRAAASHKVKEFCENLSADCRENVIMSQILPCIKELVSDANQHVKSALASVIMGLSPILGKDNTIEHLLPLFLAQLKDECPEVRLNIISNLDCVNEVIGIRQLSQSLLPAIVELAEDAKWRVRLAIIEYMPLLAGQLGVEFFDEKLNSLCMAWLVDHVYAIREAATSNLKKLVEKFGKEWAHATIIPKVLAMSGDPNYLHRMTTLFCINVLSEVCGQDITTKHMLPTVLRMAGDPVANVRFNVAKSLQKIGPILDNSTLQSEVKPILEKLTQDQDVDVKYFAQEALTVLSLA", "assay": "MST assay, binding to PP2Aa"}, "STRN3": {"target": "T3, STRN3 (Homo sapiens, UniProt Q13033)", "T3 construct": "His-SUMO; made in house; host or cells: E. coli BL21 Codon plus (DE3)", "T3 sequence (Q13033 64-145)": "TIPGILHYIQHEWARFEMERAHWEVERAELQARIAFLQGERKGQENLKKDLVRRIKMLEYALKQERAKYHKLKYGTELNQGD", "assay": "ITC binding to STRN3", "method": "(§1) ITC experiments were conducted using an iTC200 instrument from Microcal at 25 °C. […] Each titration included a single […] injection followed by 19 sequential injections of […] aliquots, with a spacing of 300 s between the injections, and stirring at 1000 rpm. Data were analyzed using the ITC data analysis software (MicroCal Software, https://www.malvernpanalytical.com/en/support/product-support/software/microcal-peaq-itc-analysis-software-v141)."}, "PP2Aa [3]": {"target": "T2, PP2Aa", "assay": "ITC binding to PP2Aa", "conditions": "25 °C", "method": "as §1"}, "mice": {"tested_on": "mice", "conditions": "ref [65]; cited from earlier work"}, "HGC-27 cells [4]": {"tested_on": "HGC-27 cells", "assay": "Colony formation assay in HGC-27 cells", "conditions": "about 2 weeks", "description": "After about 2 weeks incubation, cell colonies were identified by their being stained with 1% crystal violet dye. And colonies with diameters of >1 mm were counted."}, "[5]": {"tested_on": "YAP target gene CTGF in HGC-27 cells", "assay": "CTGF mRNA (qPCR) in HGC-27 cells", "conditions": "48 h"}, "YAP phosphorylation": {"tested_on": "YAP phosphorylation", "conditions": "HEK293A, Flag-YAP"}, "HGC-27 cells [6]": {"tested_on": "HGC-27 cells", "assay": "Cell viability assay in HGC-27 cells", "assay_type": "cell-based, human", "conditions": "for pIC50: cell viability, read-out: IC50 values in HGC-27 cells"}, "PP2Aa–STRN3 interaction [7]": {"target": "T1, PP2Aa–STRN3 interaction", "assay": "GST pulldown assay, PP2Aa–STRN3", "assay_type": "binding", "design": "GST; SUMO; made in house; host or cells: E. coli BL21 Codon plus (DE3)", "conditions": "recombinant GST-PP2Aa and His-Sumo-STRN3; up to 10 μM compound"}}, "note": "pIC50, pKd: −log10 of the molar value. Like-named read-outs stand apart in the source and are kept apart here.", "data": [{"compound": "CCN(CC)C(=S)SSC(=S)N(CC)CC", "note": "[DSF, disulfiram]", "values": [{"measurement": "pIC50", "setting": "GES-1 cells", "result": 5.89}, {"measurement": "Ctgf expression in tumors (RNA-Scope)", "setting": "MNNG-induced GC tumors", "result": "sharp decrease"}, {"measurement": "area of tumors", "setting": "MNNG-induced GC tumors", "result": "substantially smaller"}, {"measurement": "PP2Aa–STRN3 interaction in Co-IP", "setting": "PP2Aa–STRN3 interaction [1]", "result": "dramatically decreased"}, {"measurement": "tumor weight / tumor growth", "setting": "AGS cells xenograft", "result": "modestly lower tumor weights"}, {"measurement": "adverse effects in zebrafish larvae", "setting": "zebrafish larvae", "result": "adverse effects"}, {"measurement": "pKd", "setting": "PP2Aa [2]", "result": 5.31}, {"measurement": "effect on binding of STRN3 to PP2Aa", "setting": "PP2Aa [2]; compound added", "result": "readily disrupted the binding of STRN3 to PP2Aa"}, {"measurement": "binding to STRN3", "setting": "STRN3", "result": "can specifically bind to PP2Aa but not STRN3"}, {"measurement": "pKd", "setting": "PP2Aa [3]", "result": 5.39}, {"measurement": "in vivo side effects in mice", "setting": "mice", "result": "reduction of body weight and glucose excretion"}, {"measurement": "colony formation of HGC-27 cells", "setting": "HGC-27 cells [4]", "result": "significantly inhibited colony formation"}, {"measurement": "mRNA levels of YAP target gene CTGF", "setting": "[5]", "result": "significantly reduced"}, {"measurement": "level of pYAP^Ser", "setting": "YAP phosphorylation", "result": "dose-dependently increased"}, {"measurement": "level of pYAP^Tyr", "setting": "YAP phosphorylation", "result": "marginal effect"}, {"measurement": "pIC50", "setting": "HGC-27 cells [6]; listed as Disulfiram", "result": 6.41}, {"measurement": "pIC50", "setting": "HGC-27 cells [6]", "result": "> 5.30"}, {"measurement": "effect of addition of copper ion on suppression of HGC-27 cell viability by the compound", "setting": "HGC-27 cells [6]; compound-Cu complex vs compound", "result": "further dramatically enhanced"}, {"measurement": "PP2Aa–STRN3 association in GST pulldown", "setting": "PP2Aa–STRN3 interaction [7]", "result": "dramatically reduced"}]}]}
